“And” between values parts separate entries of the source, which are not always exact repeats. Identical values can stand only once. Like-named read-outs stand apart in the source and are kept apart here.
Assays:
MCF-7 = assay: MTT assay; type: cell-based; details: Homo sapiens, MCF7; MCF-7, 24 h of treatment
Protocol: (§1) The NCI-60 screening protocol utilizes the sulforhodamine B (SRB) assay following 48 h of compound exposure. […] The MTT assay was performed on eleven cancer cell lines: human breast cancer (MDA-MB-231, MCF-7, HCC 1954), human gastric cancer (AGS), human colorectal adenocarcinoma (HT-29, DLD-1, HCT 116), human neuroblastoma (SH SY5Y), and human leukemia (JURKAT, RMPI 8866, K-562) cell lines. The study was conducted in triplicate at the following seven concentrations: 0.62, 1.25, 2.5, 5, 10, 20, and 40 μM.
(§2) The selected cell lines were seeded into 96-well plates and cultured in accordance with the previously described methodology. Then, the cells were treated with all tested compounds and DOX at concentrations of 0.625, 1.25, 2.5, 5.0, 10.0, 20.0, and 40.0 μM for 24 h. A solution of 3-(4,5-dimethyl-2-thiazolyl)-2,5-diphenyl-2H-tetrazolium bromide (Sigma-Aldrich, St. Louis, MO, USA) in phosphate-buffered saline without calcium and magnesium (Corning, Kennebunk, ME, USA) at a concentration of 5 mg/mL was used to carry out MTT assay. After incubation, 20 μL of the prepared MTT solution was added, and then the cells were incubated at 37 °C for two hours. Afterwards, the cells were lysed using 100 μL of lysing buffer (comprising 25 mM HCl, 2% acetic acid, 3% DMF, and 5% SDS, with a pH of 4.7). The absorbance was determined at a wavelength of 570 nm using an Absorbance 96 microplate reader (Byonoy GmbH, Hamburg, Germany).

K562 = assay: MTT assay; type: cell-based; details: Homo sapiens; K562, 24 h of treatment
Protocol: as §1, §2

SH SY5Y = assay: MTT assay; type: cell-based; details: Homo sapiens, 24 h of treatment
Protocol: as §1, §2

Jurkat = assay: MTT assay; type: cell-based; details: Homo sapiens, 24 h of treatment
Protocol: as §1, §2

MDA-MB-231 = assay: MTT assay; type: cell-based; details: Homo sapiens; MDA-MB-231, 24 h of treatment
Protocol: as §1, §2

HT-29 = assay: MTT assay; type: cell-based; details: Homo sapiens; HT-29, 24 h of treatment
Protocol: as §1, §2

AGS = assay: MTT assay; type: cell-based; details: Homo sapiens, 24 h of treatment
Protocol: as §1, §2

HCC-1954 = assay: MTT assay; type: cell-based; details: Homo sapiens, HCC1954; HCC-1954, 24 h of treatment
Protocol: as §1, §2

DLD-1 = assay: MTT assay; type: cell-based; details: Homo sapiens; DLD-1, 24 h of treatment
Protocol: as §1, §2

HCT-116 = assay: MTT assay; type: cell-based; details: Homo sapiens; HCT-116, 24 h of treatment
Protocol: as §1, §2

RPMI 8866 = assay: MTT assay; type: cell-based; details: Homo sapiens; RPMI 8866, 24 h of treatment
Protocol: as §1, §2

MALME-3M = assay: NCI-60 SRB screen; details: 48 h
HL-60(TB) = assay: NCI-60 SRB screen; details: for TGI / GI50: HL-60(TB), 48 h; for CC50: read-out: LC50, HL-60(TB), 48 h
SK-MEL-28 [1] = tested on: SK-MEL-28
OVCAR-4 = assay: cells; details: Homo sapiens, OVCAR-4, 48 h; for CC50: read-out: LC50, OVCAR-4, 48 h
SF-539 = assay: cells; details: Homo sapiens, SF-539, 48 h
SN12C = details: 48 h; for growth GP / TGI / GI50: SN12C; for growth GP: 10 μM
SW-620 = assay: NCI-60 SRB screen; details: SW-620, 48 h
Prostate Cancer = Prostate Cancer subpanel
[2] = tested on: Non-small cell lung cancer; details: Non-small cell lung cancer subpanel
MDA-MB-231/ATCC = assay: cells; details: Homo sapiens, MDA-MB-231, 48 h; for GI50: MDA-MB-231/ATCC, 48 h; for CC50: read-out: LC50, MDA-MB-231/ATCC, 48 h
A498 = assay: cells; details: Homo sapiens, A498, 48 h
SK-MEL-28 [3] = assay: cells; details: Homo sapiens, SK-MEL-28, 48 h; for CC50: read-out: LC50, SK-MEL-28, 48 h
PC-3 = details: PC-3, 48 h
[4] = Homo sapiens, Malme-3M, read-out: LC50, MALME-3M, 48 h

Structure (SMILES)	IC50 (MCF-7)	IC50 (K562)	IC50 (SH SY5Y)	IC50 (Jurkat)	IC50 (MDA-MB-231)	IC50 (HT-29)	IC50 (AGS)	IC50 (HCC-1954)	IC50 (DLD-1)	IC50 (HCT-116)	IC50 (RPMI 8866)	GI50 (MALME-3M; Homo sapiens, Malme-3M)	TGI (MALME-3M; MALME-3M)	GI50 (OVCAR-4)	CC50 (OVCAR-4)	GI50 (SW-620; Homo sapiens)	TGI (SW-620)	MG_MID TGI (Prostate Cancer)	MG_MID TGI [2]	GI50 (A498)	other results
CC(C(=O)O)N1C(=O)/C(=C/C=C/c2ccc([N+](=O)[O-])o2)SC1=S (stereo not shown) [2b, 2-((Z)-5-((E)-3-(5-Nitrofuran-2-yl)allylidene)-4-oxo-2-thioxothiazolidin-3-yl)propanoic acid]	11.3 µM	> 40 µM	30.6 µM	4.78 µM	25.4 µM	24.5 µM	12.1 µM	12.5 µM	9.98 µM	39 µM	29 µM										
CCCC(C(=O)O)N1C(=O)/C(=C/C=C/c2ccc([N+](=O)[O-])o2)SC1=S (stereo not shown) [4b, 2-((Z)-5-((E)-3-(5-Nitrofuran-2-yl)allylidene)-4-oxo-2-thioxothiazolidin-3-yl)pentanoic acid]	5.87 µM	16.1 µM	16.3 µM	5.85 µM	17.5 µM	13.2 µM	6.54 µM	7.07 µM	7.61 µM	7.89 µM	19.6 µM	1.8 µM	3.40 µM	6.03 µM	44.3 µM	1.55 µM	3.08 µM	8.56 µM	6.56 µM	2.24 µM	CC50 (MALME-3M; [4]): 6.4 µM; TGI (HL-60(TB)): 6.43 µM; GI50 (HL-60(TB); Homo sapiens, HL-60, 48 h): 2.17 µM; CC50 (HL-60(TB); Homo sapiens, HL-60, 48 h): > 100 µM; TGI (SK-MEL-28 [1]; SK-MEL-28, 48 h): 3.51 µM; GI50 (SF-539): 2.12 µM; growth GP (SN12C): -95.04%; TGI (SN12C): 4.05 µM; TGI (COLO 205; COLO 205, 48 h): 3.60 µM; GI50 (MDA-MB-231/ATCC): 2.21 µM; CC50 (MDA-MB-231/ATCC): 8.33 µM; GI50 (SK-MEL-28 [3]): 1.76 µM; CC50 (SK-MEL-28 [3]): 6.98 µM; TGI (PC-3): 10.7 µM
CC(C)C(C(=O)O)N1C(=O)/C(=C/C=C/c2ccc([N+](=O)[O-])o2)SC1=S (stereo not shown) [5b, 3-Methyl-2-((Z)-5-((E)-3-(5-nitrofuran-2-yl)allylidene)-4-oxo-2-thioxothiazolidin-3-yl)butanoic acid]	3.32 µM	16.1 µM	9.37 µM	3.73 µM	9.12 µM	7.74 µM	2.65 µM	6.42 µM	3.86 µM	4.21 µM	13.5 µM	1.32 µM	2.73 µM	2.43 µM	26.3 µM	0.59 µM	2.55 µM	4.67 µM	4.25 µM	2.69 µM	CC50 (MALME-3M; [4]): 5.64 µM; TGI (HL-60(TB)): 3.87 µM; GI50 (HL-60(TB); Homo sapiens, HL-60, 48 h): 1.2 µM; CC50 (HL-60(TB); Homo sapiens, HL-60, 48 h): > 100 µM; growth GP (SK-MEL-28 [1]; SK-MEL-28, 10 μM, 48 h): -95.39%; TGI (SK-MEL-28 [1]; SK-MEL-28, 48 h): 2.83 µM; GI50 (SF-539): 1.44 µM; TGI (SN12C): 2.15 µM; TGI (COLO 205; COLO 205, 48 h): 2.79 µM; GI50 (MDA-MB-231/ATCC): 1.56 µM; CC50 (MDA-MB-231/ATCC): 5.9 µM; GI50 (SK-MEL-28 [3]): 1.46 µM; CC50 (SK-MEL-28 [3]): 5.48 µM; TGI (PC-3): 6.52 µM
CCCCC(C(=O)O)N1C(=O)/C(=C/C=C/c2ccc([N+](=O)[O-])o2)SC1=S (stereo not shown) [6b, 2-((Z)-5-((E)-3-(5-nitrofuran-2-yl)allylidene)-4-oxo-2-thioxothiazolidin-3-yl)hexanoic acid]	6.39 µM	36.2 µM	8.39 µM	13.9 µM	10.3 µM	8.01 µM	3.99 µM	4.18 µM	4.58 µM	17.6 µM	15.2 µM	2.21 µM	4.47 µM	6.12 µM	44.5 µM	1.8 µM	3.38 µM	10.8 µM	6.45 µM	3.03 µM	CC50 (MALME-3M; [4]): 9.02 µM; TGI (HL-60(TB)): 10.1 µM; GI50 (HL-60(TB); Homo sapiens, HL-60, 48 h): 2.68 µM; CC50 (HL-60(TB); Homo sapiens, HL-60, 48 h): > 100 µM; TGI (SK-MEL-28 [1]; SK-MEL-28, 48 h): 3.73 µM; GI50 (SF-539): 1.89 µM; TGI (SN12C): 4.00 µM; TGI (COLO 205; COLO 205, 48 h): 3.66 µM; GI50 (MDA-MB-231/ATCC): 2.27 µM; CC50 (MDA-MB-231/ATCC): 8.73 µM; GI50 (SK-MEL-28 [3]): 1.91 µM; CC50 (SK-MEL-28 [3]): 7.29 µM; TGI (PC-3): 11.3 µM
O=C(O)CCCN1C(=O)/C(=C/C=C/c2ccc([N+](=O)[O-])o2)SC1=S [13b, 4-((Z)-5-((E)-3-(5-Nitrofuran-2-yl)allylidene)-4-oxo-2-thioxothiazolidin-3-yl)butanoic acid]	1.63 µM	3.57 µM	8.41 µM	0.5 µM	8.73 µM	4.39 µM	2.1 µM	3.12 µM	3.18 µM	3.97 µM	3.94 µM	0.24 µM	0.60 µM and 0.35 µM	1.16 µM	5.75 µM	0.24 µM	0.54 µM and 0.83 µM	2.57 µM	4.48 µM	4.13 µM	GI50 (MALME-3M; MALME-3M): 0.15 µM; CC50 (HL-60(TB); Homo sapiens, HL-60, 48 h): > 100 µM; growth GP (SN12C): -96.81%; GI50 (SN12C): 0.17 µM; GI50 (SW-620): 0.28 µM; GI50 (PC-3): 0.4 µM; TGI (PC-3): 3.10 µM and 2.02 µM
O=C(O)CCCCCN1C(=O)/C(=C/C=C/c2ccc([N+](=O)[O-])o2)SC1=S [14b, 6-((Z)-5-((E)-3-(5-nitrofuran-2-yl)allylidene)-4-oxo-2-thioxothiazolidin-3-yl)hexanoic acid]	0.85 µM	1.53 µM	4.11 µM	0.28 µM	6.61 µM	4.52 µM	2.57 µM	3.3 µM	1.8 µM	2.11 µM	3.13 µM	0.28 µM	0.76 µM and 0.72 µM	1.31 µM	5.41 µM	0.23 µM	0.57 µM and 0.61 µM	3.13 µM	3.85 µM	8.13 µM	CC50 (MALME-3M; [4]): 2.85 µM; GI50 (MALME-3M; MALME-3M): 0.24 µM; CC50 (MALME-3M; read-out: LC50, MALME-3M): 2.72 µM; GI50 (HL-60(TB)): 1.11 µM; TGI (HL-60(TB)): 3.32 µM and 2.81 µM; GI50 (HL-60(TB); Homo sapiens, HL-60, 48 h): 0.75 µM; GI50 (SK-MEL-28 [1]; SK-MEL-28, 48 h): 1.19 µM; TGI (SK-MEL-28 [1]; SK-MEL-28, 48 h): 3.11 µM and 2.71 µM; CC50 (SK-MEL-28 [1]; human, 48 h): 6.21 µM; GI50 (SN12C): 0.26 µM; TGI (SN12C): 1.36 µM and 0.86 µM; CC50 (SN12C; human): 3.24 µM; GI50 (SW-620): 0.24 µM; GI50 (COLO 205; COLO 205, 48 h): 0.97 µM; TGI (COLO 205; COLO 205, 48 h): 3.08 µM and 2.35 µM; CC50 (COLO 205; human, 48 h): 5.61 µM; GI50 (SK-MEL-28 [3]): 1.64 µM; CC50 (SK-MEL-28 [3]): 5.9 µM; TGI (PC-3): 3.15 µM and 3.30 µM
